Test results published in patent US7186732B2, “Non-imidazole aryloxyalkylamines” (Ortho-McNeil Pharmaceutical, Inc., priority 2000, dated 2007).
Where a name gives a salt, the structure may show the parent alone. Read-outs that look alike come from different tables or passages of the source.

Biological target: T1, human histamine H3 receptor (Homo sapiens, UniProt Q9Y5N1)
T1 construct: expressed in transfected cells; membranes prepared from cell pellets
Assay: [3H]-N-methylhistamine binding to membranes of histamine H3 receptor-expressing SK-N-MC cells
Details: 0.8 nM [3H]-N-methylhistamine, 45 min at 25° C., SK-N-MC cell membranes, read-out: Ki
Protocol: Thus in the present invention receptor binding was determined using the human histamine H3 receptor (See Lovenberg et al Mol. Pharmacol. 1999, 1107). Screening using the human receptor is particularly important for the identification of new therapies for the treatment of human disease. Conventional binding assays for example are determined using rat synaptosomes (Garbarg et al J. Pharmacol. Exp. Ther. 1992, 263, 304), rat cortical membranes (West et al Mol. Pharmacol. 1990, 610), and guinea pig brain (Korte et al Biochem. Biophys. Res. Commun. 1990, 978).
Transfection of Cells with Human Histamine Receptor
A 10 cm tissue culture dish with a confluent monolayer of SK-N-MC cells was split two days prior to transfection. Using sterile technique the media was removed and the cells were detached from the dish by the addition of trypsin. One fifth of the cells were then placed onto a new 10 cm dish. Cells were grown in a 37° C. incubator with 5% CO2 in Minimal Essential Media Eagle with 10% Fetal Bovine Serum. After two days cells were approximately 80% confluent. These were removed from the dish with trypsin and pelleted in a clinical centrifuge. The pellet was then re-suspended in 400 μL complete media and transferred to an electroporation cuvette with a 0.4 cm gap between the electrodes (Bio-Rad #165–2088). One microgram of supercoiled H3 receptor cDNA was added to the cells and mixed. The voltage for the electroporation was set at 0.25 kV, the capacitance was set at 960 μF. After electroporation the cells were diluted into 10 mL complete media and plated onto four 10 cm dishes. Because of the variability in the efficiency of electroporation, four different concentrations of cells were plated. The ratios used were; 1:20, 1:10, 1:5, with the remainder of the cells being added to the fourth dish. The cells were allowed to recover for 24 hours before adding the selection media (complete media with 600 μg/mL G418). After 10 days dishes were analyzed for surviving colonies of cells. Dishes with well isolated colonies were used. Cells from individual colonies were isolated and tested. SK-N-MC cells were used because they give efficient coupling for inhibition of adenylate cyclase. The clones that gave the most robust inhibition of adenylate cyclase in response to histamine were used for further study.
[^3H]-N-methylhistamine Binding
Cell pellets from histamine H3 receptor-expressing SK-N-MC cells were homogenized in 20 mM TrisHCI/0.5 mM EDTA. Supernatants from a 800 g spin were collected, recentrifuged at 30,000 g for 30 minutes. Pellets were re-homogenized in 50 mM Tris/5 mM EDTA (pH 7.4). Membranes were incubated with 0.8 nM [^3H]-N-methylhistamine plus/minus test compounds for 45 min at 25° C. and harvested by rapid filtration over GF/C glass fiber filters (pretreated with 0.3% polyethylenimine) followed by four washes with ice cold buffer. Filters were dried, added to 4 mL scintillation cocktail and then counted on a liquid scintillation counter. Non-specific binding was defined with 10 μM histamine. The pKi values were calculated based on a Kd of 800 pM and a ligand concentration ([L]) of 800 pM according to the formula: Ki=(IC50)/(1+([L]/(Kd))

T1 sequence (Q9Y5N1 whole entry): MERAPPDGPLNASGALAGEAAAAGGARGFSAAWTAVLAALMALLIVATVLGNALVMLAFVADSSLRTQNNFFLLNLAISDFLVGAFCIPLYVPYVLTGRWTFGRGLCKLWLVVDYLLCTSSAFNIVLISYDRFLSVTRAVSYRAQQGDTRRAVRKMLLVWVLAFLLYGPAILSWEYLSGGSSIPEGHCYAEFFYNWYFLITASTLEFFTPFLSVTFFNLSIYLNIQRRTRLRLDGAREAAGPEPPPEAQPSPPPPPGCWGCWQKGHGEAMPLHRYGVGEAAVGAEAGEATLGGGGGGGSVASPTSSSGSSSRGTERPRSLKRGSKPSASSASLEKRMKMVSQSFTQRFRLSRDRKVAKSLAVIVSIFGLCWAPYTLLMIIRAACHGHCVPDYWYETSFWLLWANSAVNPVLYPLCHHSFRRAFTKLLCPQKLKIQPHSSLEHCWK

| Compound | Ki (Ki=(IC50)/(1+([L]/(Kd))) | Ki ([…]) |
| --- | --- | --- |
| c1ccc2c(c1)CCN(Cc1ccc(OCCN3CCCCC3)cc1)C2 [Example 21, 2-[4-(2-Piperidin-1-yl-ethoxy)-benzyl]-1,2,3,4-tetrahydro-isoquinoline] | 4 nM |  |
| OC1(c2ccc(OCCCN3CCCCC3)cc2)CCN(Cc2ccccc2)CC1 [Example 22, 1-Benzyl-4-[4-(3-piperidin-1-yl-propoxy)-phenyl]-piperidin-4-ol] |  | 0.9 nM |
| c1cc(N2CCNCC2)ccc1OCCCN1CCCC1 [Example 23, 1-[4-(3-Pyrrolidin-1-yl-propoxy)-phenyl]-piperazine hydrochloride] |  | 1.3 nM |
| c1cc(N2CCNCC2)ccc1OCCCN1CCCCC1 [Example 25, 1-[4-(3-Piperidin-1-yl-propoxy)-phenyl]-piperazine hydrochloride] | 1 nM |  |
| c1ccc(CN2CCN(c3ccc(OCCCN4CCCCC4)cc3)CC2)cc1 [Example 27, 1-Benzyl-4-[4-(3-piperidin-1-yl-propoxy)-phenyl]-piperazine] |  | 3 nM |
| CN(C)CCOc1ccc(OCCCN2CCCCC2)cc1 [Example 29, Dimethyl-{2-[4-(3-piperidin-1-yl-propoxy)-phenoxy]-ethyl}-amine] | 2.3 nM |  |
| c1cc(OCCCN2CCCCC2)ccc1OCCCN1CCCCC1 [Example 31, 1-{3-[4-(3-Piperidin-1-yl-propoxy)-phenoxy]-propyl}-piperidine] | 0.5 nM |  |
| c1cc(-n2nnnc2SCCCN2CCCCC2)ccc1OCCCN1CCCCC1 [Example 32, 1-(3-{4-[5-(3-Piperidin-1-yl-propylsulfanyl)-tetrazol-1-yl]-phenoxy}-propyl)-piperidine] | 0.5 nM |  |
| c1cc(-c2ncc(OCCCN3CCCCC3)cn2)ccc1OCCCN1CCCCC1 [Example 33, 5-(3-Piperidin-1-yl-propoxy)-2-[4-(3-piperidin-1-yl-propoxy)-phenyl]-pyrimidine] | 13 nM |  |
| c1ccc(-c2ccc(OCCCN3CCCCC3)cc2)c(CN2CCCCC2)c1 [Example 34, 1-[3-(2′-Piperidin-1-ylmethyl-biphenyl-4-yloxy)-propyl]-piperidine] | 1.5 nM |  |
| CN1CCCC1c1ccc(OCCCN2CCCCC2)cc1 (stereo not drawn) [Example 37, 1-{3-[4-(1-Methyl-pyrrolidin-2-yl)-phenoxy]-propyl}-piperidine] | 0.4 nM |  |
| c1ccc(N(CCN2CCCC2)C2CCN(Cc3ccc(OCCCN4CCCCC4)cc3)CC2)nc1 [Example 38, {1-[4-(3-Piperidin-1-yl-propoxy)-benzyl]-piperidin-4-yl}-pyridin-2-yl-(2-pyrrolidin-1-yl-ethyl)-amine] |  | 1.2 nM |
| c1ccc(NCc2ccc(OCCCN3CCCC3)cc2)nc1 [Example 39, Pyridin-2-yl-[4-(3-pyrrolidin-1-yl-propoxy)-benzyl]-amine] | 4.5 nM |  |
| CN(CCc1ccccc1)C1CCN(Cc2ccc(OCCCN3CCCCC3)cc2)CC1 [Example 42, Methyl-phenethyl-{1-[4-(3-piperidin-1-yl-propoxy)-benzyl]-piperidin-4-yl}-amine] | 1.1 nM |  |
| OCCC1CCN(Cc2ccc(OCCCN3CCCCC3)cc2)CC1 [Example 46, 2-{1-[4-(3-Piperidin-1-yl-propoxy)-benzyl]-piperidin-4-yl}-ethanol] |  | 1.2 nM |
| c1ccc2c(c1)CCC2NCc1ccc(OCCCN2CCCCC2)cc1 (stereo not drawn) [Example 47, Indan-1-yl-[4-(3-piperidin-1-yl-propoxy)-benzyl]-amine] | 1 nM |  |
| Clc1ccc(N2CC3CC2CN3Cc2ccc(OCCCN3CCCCC3)cc2)cc1 (stereo not drawn) [Example 55, 2-(4-Chloro-phenyl)-5-[4-(3-piperidin-1-yl-propoxy)-benzyl]-2,5-diaza-bicyclo[2.2.1]heptane] | 1.4 nM |  |
| c1ccc(CCCC2CCN(Cc3ccc(OCCCN4CCCCC4)cc3)CC2)cc1 [Example 58, 1-[4-(3-Piperidin-1-yl-propoxy)-benzyl]-4-(3-phenyl-propyl)-piperidine] | 1.9 nM |  |

Second part, led by results:

| Ki (Ki=(IC50)/(1+([L]/(Kd))) | Compound | Ki ([…]) |
| --- | --- | --- |
| 5 nM | c1cc(OCCN2CCCCC2)ccc1CN1CCCCC1 [Example 20, 1-[2-(4-Piperidin-1-ylmethyl-phenoxy)-ethyl]-piperidine] |  |
| 1.3 nM | c1ccc(CN2CCN(c3ccc(OCCCN4CCCC4)cc3)CC2)cc1 [Example 24, 1-Benzyl-4-[4-(3-pyrrolidin-1-yl-propoxy)-phenyl]-piperazine] |  |
| 0.3 nM | CC(C)N1CCN(c2ccc(OCCCN3CCCCC3)cc2)CC1 [Example 26, 1-Isopropyl-4-[4-(3-piperidin-1-yl-propoxy)-phenyl]-piperazine] |  |
| 0.4 nM | c1cc(OCCN2CCCCC2)ccc1OCCCN1CCCCC1 [Example 30, 1-{3-[4-(2-Piperidin-1-yl-ethoxy)-phenoxy]-propyl}-piperidine] |  |
| 0.7 nM | c1ccc2c(c1)CCN(Cc1ccc(OCCCN3CCCCC3)cc1)C2 [Example 36, 2-[4-(3-Piperidin-1-yl-propoxy)-benzyl]-1,2,3,4-tetrahydro-isoquinoline] |  |
| 5.7 nM | CN(C)CCCOc1ccc(CN2CCCCC2)cc1 [Example 40, Dimethyl-[3-(4-piperidin-1-ylmethyl-phenoxy)-propyl]-amine] |  |
| 0.8 nM | c1ccc(NC2CCN(Cc3ccc(OCCCN4CCCCC4)cc3)CC2)nc1 [Example 41, {1-[4-(3-Piperidin-1-yl-propoxy)-benzyl]-piperidin-4-yl}-pyridin-2-yl-amine] |  |
| 0.5 nM | CN(Cc1ccccc1)C1CCN(Cc2ccc(OCCCN3CCCCC3)cc2)CC1 [Example 43, Benzyl-methyl-{1-[4-(3-piperidin-1-yl-propoxy)-benzyl]-piperidin-4-yl}-amine] |  |
| 2.5 nM | c1cc(OCCCN2CCCCC2)ccc1CN1CCCCCCCCCCCC1 [Example 45, 1-[4-(3-Piperidin-1-yl-propoxy)-benzyl]-azacyclotridecane] |  |
| 1.2 nM | c1cc(OCCCN2CCCCC2)ccc1CN1CCCC1 [Example 48, 1-[3-(4-Pyrrolidin-1-ylmethyl-phenoxy)-propyl]-piperidine] |  |
| 1 nM | c1cc(OCCCN2CCCCC2)ccc1CNC1CCCCC1 [Example 49, Cyclohexyl-[4-(3-piperidin-1-yl-propoxy)-benzyl]-amine] |  |
| 1 nM | c1cc(OCCCN2CCCCC2)ccc1CNC1CC1 [Example 50, Cyclopropyl-[4-(3-piperidin-1-yl-propoxy)-benzyl]-amine] |  |
| 4 nM | c1cc(OCCCN2CCOCC2)ccc1CN1CCCCC1 [Example 51, 4-[3-(4-Piperidin-1-ylmethyl-phenoxy)-propyl]-morpholine] |  |
| 25 nM | CN1CCN(CCCOc2ccc(CN3CCCCC3)cc2)CC1 [Example 52, 1-Methyl-4-[3-(4-piperidin-1-ylmethyl-phenoxy)-propyl]-piperazine] |  |
| 2.5 nM | CN1CCN(Cc2ccc(OCCCN3CCCCC3)cc2)CC1 [Example 53, 1-Methyl-4-[4-(3-piperidin-1-yl-propoxy)-benzyl]-piperazine] |  |
| 1 nM | c1cc(OCCCN2CCCCC2)ccc1CN1CCC2(CC1)OCCO2 [Example 54, 8-[4-(3-Piperidin-1-yl-propoxy)-benzyl]-1,4-dioxa-8-aza-spiro[4.5]decane] |  |
| 1 nM | NC(=O)C1CCN(Cc2ccc(OCCCN3CCCCC3)cc2)CC1 [Example 57, 1-[4-(3-Piperidin-1-yl-propoxy)-benzyl]-piperidine-4-carboxylic acid amide] |  |
| 2 nM | CN(C)Cc1ccc(OCCCN2CCCCC2)cc1 [Example 59, Dimethyl-[4-(3-piperidin-1-yl-propoxy)-benzyl]-amine] |  |
